This note sets out measurements from US3988466A, “Prevention of gastric lesions” (priority 1973, dated 1976).

Data set [1] deals with aspirin-induced gastric lesions in pylorus-ligated rats. Nature of the data set: Effect of various amino acids on aspirin-induced gastric lesions in pylorus-ligated rats (Experiment 3). In kind it is in vivo, male Donryu strain rats.
A short description of data set [2]: pH of amino acids in 1% carboxymethylcellulose solution. In kind it is physicochemical. As to conditions: 150 mg/ml in 1% carboxymethylcellulose solution. How it is done: The pH values of the amino acids are also determined. The amino acids are separately dissolved or suspended in 1% carboxymethylcellulose solution at a concentration of 150 mg/ml and the pH is measured on an Hitachi pH meter (product of Hitachi Ltd., Japan).

The subject of data set [3] is gastric secretion in pylorus-ligated rats. The experiment in a line: Effect of L-glutamine on gastric secretion in pylorus-ligated rats (Experiment 4). In kind it is in vivo, male Donryu strain rats. How it is done: In this Experiment, 7 groups of male Donryu strain rats are used. After 24 hours of fasting, the pylorus of the animal is ligated in the same manner as described in Experiment 1. Six groups are treated in the same manner as described in Experiment 1 except for the injection of the solution of pontamine sky blue 6BX in saline. A seventh group (normal) is treated twice with 5 ml/kg of 1% carboxymethylcellulose solution.
After 7 hours of pylorus ligation, the animals are killed and the stomach is removed. The gastric juice is collected and the volume is measured. The gastric juice is titrated to pH 7.4 with 0.1N NaOH using an electromatic pH meter. The concentration of pepsin in the gastric juice is also determined according to Anson's hemoglobin method [Anson, M. L., J. Gen. Physiol.

In data set [4] the test system is yeast-induced fever in rats. Nature of the data set: Effect of L-glutamine on antipyretic activity of aspirin in rats (Experiment B). In kind it is in vivo, male Wistar strain rats. As to conditions: aspirin 200 mg/kg oral. How it is done:
In this Experiment, male Wistar strain rats weighing about 90-100 g are treated with 2.5 ml/rat of a suspension of yeast (Brewers Yeast, product of Nutritional Biochem. Co., U.S.A.) in physiological saline (concentration: 250 mg/ml), by subcutaneous injection in the back, according to the method of Gleen et al [Gleen, E. M. et al: J. Pharma. Exp. Therp., 155, 157 (1967)]. The animals are then fasted. The animals showing an increased rectal temperature of 38° C or more after 17 hours are selected for use in experiment. […] As a control, one group is treated with 105 ml of 1% carboxymethylcellulose solution alone. After the treatment, the rectal temperature is measured at the time indicated.

The subject of data set [5] is acetic acid-induced writhing response in mice. Nature of the data set: Effect of L-glutamine on analgesic activity of aspirin in mice (Experiment C). In kind it is in vivo, male dd strain mice. The following applies: aspirin 300 mg/kg oral; writhings in 10 minutes. The procedure: In this Experiment, 3 groups of male dd strain mice weighing 19-21 g are used.
As a control, the third group is treated only with 1% carboxymethylcellulose solution. After a control period of one hour, the animals are treated with 0.2 ml of 0.7% acetic acid solution in physiological saline by intraperitoneal injection, according to the method of Koster et al. [Koster, R. et al: Fed. Proc., 18, 412 (1959)]. Starting 10 minutes after the administration of acetic acid, the number of writhing reaction occurred in 10 minutes is counted.
Background: In writhing tests, fewer writhes than in controls are read as antinociception.

Setting [6] is: Rattus norvegicus, po; read-out: Inhibition.
Where [7] appears, read: amino acid 750 mg/kg oral; aspirin by gastric intubation.
Where [8] appears, read: Rattus norvegicus, po, read-out: Inhibition.
Where [9] appears, read: Control group: aspirin 100 mg/kg without L-glutamine, 7 hours.

The structures appear in SMILES notation. Several values for one entry are separate records, joined by “and”; a condition that tells them apart may be missing. Identical values can stand only once. Entries after “also recorded” stand apart in the source; their conditions may differ. Like-named read-outs stand apart in the source and are kept apart here.

As to `C[C@H](N)C(=O)O` [L-alanine], the inhibition in vivo at 750 mg/kg in data set [1] (setting [6]) was determined as 85.1%. For the same compound, in data set [1] (setting [7]), the Ulcer index was determined as 6.7±1.5 mm. The “Amino acid pH” value in data set [2] is listed as 6.45.
For `N[C@@H](CO)C(=O)O` [L-serine] the same measures were 93.3%, 3.0±1.0 mm and 6.11.
For `N[C@@H](Cc1c[nH]cn1)C(=O)O` [L-histidine] the same measures were 95.3%, 2.1±0.8 mm and 7.86.
Regarding `N=C(N)NCCC[C@H](N)C(=O)O` [L-arginine], the inhibition in vivo at 750 mg/kg in data set [1] (setting [8]) was 98%. Moreover, the “effect on aspirin-induced gastric lesions (in words)” value in data set [1] (amino acid 750 mg/kg oral) is listed as “prevent the aspirin-induced gastric lesions almost completely; also recorded: best preventive effect”. The Ulcer index in data set [1] (setting [7]) came to 0.9±0.5 mm. Also, the “Amino acid pH” value in data set [2] is reported as 11.00.
For the compound `N[C@@H](CCC(=O)O)C(=O)O` [L-glutamic acid], the inhibition in vivo at 750 mg/kg in data set [1] (setting [6]) came to 79.8%. Moreover, the “effect on aspirin-induced gastric lesions (in words)” value in data set [1] (amino acid 750 mg/kg oral) is on record as “good effect”. Further, in data set [1] (setting [7]), the Ulcer index was found to be 9.1±2.6 mm. Besides, the “Amino acid pH” value in data set [2] is reported as 3.45.
Taken in the same sequence, the figures for `N[C@@H](CC(=O)O)C(=O)O` [L-aspartic acid] were 17.3%, “no appreciable effect; also recorded: no significant effect”, 37.3±6.9 mm and 3.33.
Take `NCCCC[C@H](N)C(=O)O` [L-lysine]: in data set [1] (setting [8]), the inhibition in vivo at 750 mg/kg amounted to 99.1%. Also, the “effect on aspirin-induced gastric lesions (in words)” value in data set [1] (amino acid 750 mg/kg oral) is “prevent the aspirin-induced gastric lesions almost completely; also recorded: best preventive effect”. The compound further had a Ulcer index in data set [1] (setting [7]) of 0.4±0.2 mm. Also, the “Amino acid pH” value in data set [2] amounted to 10.26.
For `O=C(O)[C@@H]1CCCN1` [L-proline], in data set [1] (setting [6]), the inhibition in vivo at 750 mg/kg is 77.6%. In data set [1] (setting [7]), the Ulcer index came to 10.1±2.3 mm. For the same compound, in data set [2], the “Amino acid pH” value amounted to 6.32.
Taken in the same sequence, the figures for `C[C@@H](O)[C@H](N)C(=O)O` [L-threonine] were 89.6%, 4.7±1.1 mm and 6.26.
Regarding `NCC(=O)O` [glycine], the inhibition in vivo at 750 mg/kg in data set [1] (setting [8]) was 85.8%. The same compound displayed a Ulcer index in data set [1] (setting [7]) of 6.4±1.7 mm. The “Amino acid pH” value in data set [2] was found to be 6.12.
As for `N[C@@H](Cc1ccccc1)C(=O)O` [L-phenylalanine], the inhibition in vivo at 750 mg/kg in data set [1] (setting [6]) came out at 52.3%. The “effect on aspirin-induced gastric lesions (in words)” value in data set [1] (amino acid 750 mg/kg oral) is listed as “significant inhibition of the lesions”. In data set [1] (setting [7]), the Ulcer index is on record as 21.5±3.7 mm. Besides, the “Amino acid pH” value in data set [2] was determined as 6.26.
For `N[C@@H](Cc1ccc(O)cc1)C(=O)O` [L-tyrosine], the inhibition in vivo at 750 mg/kg in data set [1] (setting [8]) was determined as 12.9%. Also, the “effect on aspirin-induced gastric lesions (in words)” value in data set [1] (amino acid 750 mg/kg oral) was “no appreciable effect; also recorded: no significant effect”. Also, the Ulcer index in data set [1] (setting [7]) turned out to be 39.3±3.0 mm. Besides, the “Amino acid pH” value in data set [2] was 7.52 and 7.25.
For the compound `NC(=O)C[C@H](N)C(=O)O` [L-asparagine], the inhibition in vivo at 750 mg/kg in data set [1] (setting [6]) was 77.8%. The compound further returned a Ulcer index in data set [1] (setting [7]) of 10.0±2.2 mm. The “Amino acid pH” value in data set [2] was found to be 5.80.
With `O=C(O)[C@@H]1C[C@@H](O)CN1` [L-hydroxyproline], in data set [1] (setting [8]), the inhibition in vivo at 750 mg/kg was 71.6%. Besides, the “effect on aspirin-induced gastric lesions (in words)” value in data set [1] (amino acid 750 mg/kg oral) was “effective for the prevention of the gastric lesions with high significance”. The Ulcer index in data set [1] (setting [7]) is 12.8±2.6 mm. Further, in data set [2], the “Amino acid pH” value amounted to 7.86.
Turning to `CC(=O)Oc1ccccc1C(=O)O` [aspirin, reference compound], in data set [3] (setting [9]), the Gastric juice volume was 12.5 ± 0.5 mL, the Pepsin concentration was 31.8 ± 1.0 mg/mL and the Titrable acidity came out at 65.1±5.7 mEq/L. For the same compound, in data set [3] (administration of aspirin), the “concentration of pepsin (in words)” value is reported as “increased”. Further, in data set [3] (aspirin itself), the “effect on acid output (in words)” value is “considerably reduces the titrable acidity and acid output”; the “effect on titrable acidity (in words)” value is reported as “considerably reduces the titrable acidity”; the “effect on volume of gastric juice (in words)” value is given as “does not affect the volume of gastric juice”. The Rectal temperature in data set [4] (0 hour) amounted to 38.4±0.1 °C. In data set [4] (1 hour), this compound showed a Rectal temperature of 37.9±0.1 °C. For the same compound, in data set [4] (2 hours), the Rectal temperature was 36.7±0.2 °C. In data set [4] (4 hours), this compound registered a Rectal temperature of 36.6±0.1 °C. Besides, in data set [4] (6 hours), the Rectal temperature worked out at 36.9±0.2 °C. Moreover, the Writhing response number in data set [5] was determined as 10±1.
For the compound `NC(=O)CC[C@@H](N)C(=O)O` [D-glutamine], the inhibition in vivo at 750 mg/kg in data set [1] (setting [6]) came to 82.9%. For the same compound, the Ulcer index in data set [1] (setting [7]) came out at 7.7±1.8 mm. Also, the “Amino acid pH” value in data set [2] came out at 5.51.
Taken in the same sequence, the figures for `CC(C)[C@H](N)C(=O)O` [L-valine] were 91.8%, 3.7±1.3 mm and 6.80.
Turning to `N[C@@H](CS)C(=O)O` [L-cysteine], in data set [1] (setting [6]), the inhibition in vivo at 750 mg/kg came out at 10.2%. For the same compound, in data set [1] (amino acid 750 mg/kg oral), the “effect on aspirin-induced gastric lesions (in words)” value is reported as “no appreciable effect”. In addition, the Ulcer index in data set [1] (setting [7]) is on record as 40.5±7.6 mm. Moreover, the “Amino acid pH” value in data set [2] is 5.81.
As for `CC(C)C[C@H](N)C(=O)O` [L-leucine], the inhibition in vivo at 750 mg/kg in data set [1] (setting [6]) amounted to 80.5%. The compound further yielded a Ulcer index in data set [1] (setting [7]) of 8.8±2.8 mm. Besides, in data set [2], the “Amino acid pH” value is 7.15.
As to `N[C@@H](CSSC[C@H](N)C(=O)O)C(=O)O` [L-cystine], the inhibition in vivo at 750 mg/kg in data set [1] (setting [6]) is 7.8%. Moreover, in data set [1] (amino acid 750 mg/kg oral), the “effect on aspirin-induced gastric lesions (in words)” value is “no appreciable effect”. This compound also showed a Ulcer index in data set [1] (setting [7]) of 41.6±3.9 mm. Further, in data set [2], the “Amino acid pH” value was determined as 6.62.
Taken in the same sequence, the figures for `CC[C@H](C)[C@H](N)C(=O)O` [L-isoleucine] were 72.6%, “effective for the prevention of the gastric lesions with high significance”, 11.9±2.3 mm and 6.60.
On to `NC(Cc1c[nH]c2ccccc12)C(=O)O` (racemic) [DL-tryptophan], for which the inhibition in vivo at 750 mg/kg in data set [1] (setting [6]) came to 39.2%. In addition, the Ulcer index in data set [1] (setting [7]) was found to be 27.4±4.3 mm. The “Amino acid pH” value in data set [2] was determined as 8.27.
With `CSCC[C@H](N)C(=O)O` [L-methionine], the inhibition in vivo at 750 mg/kg in data set [1] (setting [6]) worked out at 71.2%. In addition, the “effect on aspirin-induced gastric lesions (in words)” value in data set [1] (amino acid 750 mg/kg oral) was “effective for the prevention of the gastric lesions with high significance”. The compound further gave a Ulcer index in data set [1] (setting [7]) of 13.0±3.3 mm. Moreover, in data set [2], the “Amino acid pH” value is 6.09.
